Results from patent EP3714904B1, “IMINODIACETIC ACID SUBSTITUTED CYCLODEXTRINS AS POTENTIATORS OF BETA-LACTAM ANTIBIOTICS” (NATIONAL CENTER FOR SCIENTIFIC RESEARCH "DEMOKRITOS" (NCSRD), priority 2019, dated 2020).

Test system: VIM-1 producing K. pneumoniae SEC-4
Test: Neutropenic murine thigh infection model
Assay type: in vivo, CD-1 mice
Details: 30 mg/kg imipenem + 10 mg/kg β-IDACYD intravenously, 2 h intervals for 24 hours
Procedure: Example 6. In-vivo murine thigh infection model: A murine thigh infection model was utilized based on the biodistribution results. In a neutropenic mouse thigh infection model was administered intravenously a therapeutic scheme of either 30 mg/kg imipenem or 30 mg/kg imipenem co-administered with 10 mg/kg β-IDACYD in 2 h intervals for 24 hours. At the end of the treatment the bacterial burden of the thigh was reduced by 0.5 log10 in the presence of 10 mg/kg β-IDACYD compared to that of the antibiotic monotherapy.
Twenty, 10 weeks old female (CD-1) mice were rendered neutropenic by administration of two doses of cyclophosphamide (150 mg/kg and 100 mg/kg per mouse on days -4 and -1, respectively). On day 0, all mice were challenged with 0.1 mL of a 10^7 CFU/mL of VIM-1 producing K. pneumoniae SEC-4 by intramuscular injection in the right thigh. From the six mice in the control group that were treated with normal saline (Group A), two mice were sacrificed 2 hours post inoculation while the other mice in groups of seven mice each were intravenously treated with 30 mg/kg imipenem (Group B) or 30 mg/kg imipenem along with 10 mg/kg β-IDACYD (Group C) at 2 hour intervals for 24 hours. At 6-hours post inoculation two mice of group 1 as well as three mice of each of groups 2 and 3 were sacrificed and their thighs were aseptically removed. […]

CO[C@@H]1[C@@H](OC)[C@H]2O[C@H]3[C@H](OC)[C@@H](OC)[C@@H](O[C@H]4[C@H](OC)[C@@H](OC)[C@@H](O[C@H]5[C@H](OC)[C@@H](OC)[C@@H](O[C@H]6[C@H](OC)[C@@H](OC)[C@@H](O[C@H]7[C@H](OC)[C@@H](OC)[C@@H](O[C@H]8[C@H](OC)[C@@H](OC)[C@@H](O[C@@H]1[C@@H](CN(CC(=O)O)CC(=O)O)O2)O[C@@H]8CN(CC(=O)O)CC(=O)O)O[C@@H]7CN(CC(=O)O)CC(=O)O)O[C@@H]6CN(CC(=O)O)CC(=O)O)O[C@@H]5CN(CC(=O)O)CC(=O)O)O[C@@H]4CN(CC(=O)O)CC(=O)O)O[C@@H]3CN(CC(=O)O)CC(=O)O [β-IDACYD]
reduction of bacterial burden of the thigh compared to antibiotic monotherapy: 0.5 log10
